{"source": "patent US11324798B2", "about": "“Materials and methods for treatment of inflammation” (CYTOGEL PHARMA, LLC, priority 2010, dated 2022)", "key": {"[1]": {"test_system": "mustard oil-induced acute neurogenic inflammation in the mouse ear", "test": "Filtered and non-filtered CYT-1010 on 5% mustard oil-induced acute neurogenic ear swelling in mice (Example 4)", "assay_type": "in vivo", "procedure": "Stock solution of the 100 μg/ml concentration of CYT-1010 (5.5 ml) was prepared fresh every experimental day with 20% hydroxypropyl-βcyclodextrin (HPCD) dissolved in sterile distilled water, shaken properly and sonicated. The vehicle was 20% HPCD dissolved in sterile distilled water. Further dilutions of the compound for the smaller administered doses were made with this vehicle. The applied concentrations were filtered through a 0.2 μm sterile teflon filter. […] The lower concentrations looked clear immediately. Non-filtered solutions were administered in the same concentrations in the parallel groups for comparison. Three doses of both the filtered and non-filtered CYT-1010 solutions (1, 10 and 100 μg/kg; 0.1 ml/10 g from the 0.1, 1 and 10 μg/ml solutions) were administered i.v. 5 min before the induction of the inflammation. Animals of the control group were treated with the same volume of the HPCD after or without the same filtration procedure.\nMice were anaesthesized with urethane (1.2 g/kg i.p.) to achieve a long-lasting deep anaesthesia and minimize respiratory depression. Ten μl of 5% mustard oil dissolved in paraffin oil was smeared on both sides of both ears. Mustard oil in this concentration selectively activates Transient Receptor Potential A1 (TRPA1) on capsaicin-sensitive peptidergic sensory nerves and induces the release of sensory neuropeptides (Banvolgyi et al., 2004). The released calcitonin gene-related peptide (CGRP) and tachykinins such as substance P (SP) in the innervated area evoke vasodilatation and plasma protein extravasation collectively called acute neurogenic inflammation (Helyes et al., 1997, 2001, 2006; Borzsei et a., 2008).\nCYT-1010 (1, 10 and 100 μg/kg; 0.1 ml/10 g from the 0.1, 1, 10 μg/ml solutions) was administered i.v. 5 min before the induction of the inflammation by mustard oil smearing. Mice in the control group were treated with the same volume of the vehicle, 20% HPCD dissolved in sterile distilled water\nThere were 8 mice in each experimental group, and 9 in the 1 μg/kg filtered CYT-1010 dose group […].\n65 male CD1 mice (25-35 g) were divided into 8 experimental groups: Group 1: non-filtered vehicle-treated controls (n=8); Group 2: non-filtered 1 μg/kg CYT-1010 (n=8); Group 3: non-filtered 10 μg/kg CYT-1010 (n=8); Group 4: non-filtered 100 μg/kg CYT-1010 (n=8); Group 5: filtered vehicle-treated controls (n=8); Group 6: filtered 1 μg/kg CYT-1010 (n=9); Group 7: filtered 10 μg/kg CYT-1010 (n=8); and Group 8: filtered 100 μg/kg CYT-1010 (n=8).\nThis study was undertaken in blocks with 16-17 mice per occasion. The whole set of data was obtained during 4 days (12, 13, 16, 22 Apr. 2010). There were 2 or 3 solvent-treated rats every day and the remaining 12 animals were randomised to receive each treatment.\nThe diameter of the ear was measured with an engineers' micrometer before the treatment and 4 times during the 3 h-examination period (20 min, 1 h, 2 h and 3 h). Edema was expressed in % compared to the initial control values (Banvolgyi et al., 2004; Borzsei et al., 2008). The compound was administered i.v. 5 min before mustard oil smearing in 3 doses (1, 10, 100 μg/kg) in separate groups after sterile filtration or without filtration. Animals of the control group were treated with the same volume of the vehicle\nResults are expressed as the mean±s.e.m. Statistical significance was performed with one-way ANOVA followed by Dunnett's post-hoc test (modified t-test) when the data of the CYT-1010-treated groups were compared to the respective vehicle-treated controls at certain time points. The areas under the time-dependent percentage ear swelling curves (AUC) were also calculated and analyzed with the same statistics to compare the whole edema responses of the CYT-1010-treated mice during the 3 h-experimental period to the respective control group. *p<0.05 was considered to be significant. […]"}, "[2]": {"test": "Survival of anaesthetised mice after i.v. CYT-1010 injection", "assay_type": "in vivo", "procedure": "In the first series of the in vivo experiments of mice, ketamine (100 mg/kg, i.p.) and xylazine (10 mg/kg, i.m.) were used for anesthesia according to the conventional protocol."}}, "note": "Entries after “also recorded” stand apart in the source; their conditions may differ.", "data": [{"smiles": "NC(Cc1ccc(O)cc1)C(=O)NC1CCCCNC(=O)C(Cc2ccccc2)NC(=O)C(Cc2c[nH]c3ccccc23)NC1=O", "note": "[CYT-1010, H-Tyr-c-[D-Lys-Trp-Phe]]", "values": [{"measurement": "Effect of filtration on the inhibitory action of CYT-1010", "setting": "[1]; 0.2 μm sterile filter, filtered vs non-filtered", "result": "moderately decreases"}, {"measurement": "AUC of time course of percentage ear swelling", "setting": "[1]; filtered (0.2 μm), 1 μg/kg i.v., control 50.04±6.96, NS", "result": "51.47±6.93", "unit": "units"}, {"measurement": "AUC of time course of percentage ear swelling", "setting": "[1]; filtered (0.2 μm), 10 μg/kg i.v., control 50.04±6.96, NS", "result": "33.68±3.79", "unit": "units"}, {"measurement": "AUC of time course of percentage ear swelling", "setting": "[1]; filtered (0.2 μm), 100 μg/kg i.v., control 50.04±6.96, NS", "result": "33.97±5.62", "unit": "units"}, {"measurement": "Effect on mustard oil-induced ear swelling", "setting": "[1]; filtered, 1 μg/kg i.v.", "result": "did not influence ear swelling; also recorded: did not have any effect"}, {"measurement": "Effect on mustard oil-induced ear swelling", "setting": "[1]; filtered, 10 μg/kg and 100 μg/kg i.v., 20 min", "result": "inhibited significantly"}, {"measurement": "Effect on mustard oil-induced ear swelling", "setting": "[1]; filtered, two higher doses (10 and 100 μg/kg i.v.)", "result": "moderate inhibition"}, {"measurement": "Effect on mustard oil-induced ear swelling", "setting": "[1]; non-filtered, 1 μg/kg i.v.", "result": "did not significantly diminish ear swelling"}, {"measurement": "AUC of time course of percentage ear swelling", "setting": "[1]; non-filtered, 1 μg/kg i.v., control 44.02±6.97, NS", "result": "40.33±5.32", "unit": "units"}, {"measurement": "Extent of the inhibition of ear swelling", "setting": "[1]; non-filtered, 10 μg/kg and 100 μg/kg i.v., both cases", "result": "about 50%"}, {"measurement": "Effect on mustard oil-induced ear swelling", "setting": "[1]; non-filtered, 10 μg/kg and 100 μg/kg i.v., from 20 min until the 2 hour time point", "result": "significantly inhibited; also recorded: significantly reduced"}, {"measurement": "AUC of time course of percentage ear swelling", "setting": "[1]; non-filtered, 10 μg/kg i.v., control 44.02±6.97, P<0.05", "result": "24.21±2.75", "unit": "units"}, {"measurement": "AUC of time course of percentage ear swelling", "setting": "[1]; non-filtered, 100 μg/kg i.v., control 44.02±6.97, P<0.01", "result": "21.71±1.72", "unit": "units"}, {"measurement": "Mortality after i.v. injection", "setting": "[2]; mice under ketamine (100 mg/kg, i.p.) and xylazine (10 mg/kg, i.m.) anesthesia, presumably respiratory depression", "result": "all the 10 mice died promptly"}, {"measurement": "Time to death after i.v. injection", "setting": "[2]; mice under ketamine/xylazine anesthesia", "result": "≤ 5", "unit": "min"}, {"measurement": "Survival after i.v. injection", "setting": "[2]; mice under urethane (1.2 g/kg i.p.) anaesthesia, one death in the 1 μg/kg dose group", "result": "all mice survived except one"}]}]}
